According to PMC4894417, “Quantitative High-Throughput Profiling of Environmental Chemicals and Drugs that Modulate Farnesoid X Receptor” (Scientific Reports, 2014):

How the values were obtained:
FXR-LBD [1] = molecular target: T1, FXR-LBD (Homo sapiens, UniProt Q96RI1); test: FXR TR-FRET coactivator recruitment assay, agonist mode; assay type: biochemical; settings: Table 1; coactivator SRC2-2 recruitment
T1 construct: The glutathione S-transferase (GST)-tagged FXR-LBD protein; purchased Life Technologies
T1 sequence (Q96RI1 262-486 limits assumed): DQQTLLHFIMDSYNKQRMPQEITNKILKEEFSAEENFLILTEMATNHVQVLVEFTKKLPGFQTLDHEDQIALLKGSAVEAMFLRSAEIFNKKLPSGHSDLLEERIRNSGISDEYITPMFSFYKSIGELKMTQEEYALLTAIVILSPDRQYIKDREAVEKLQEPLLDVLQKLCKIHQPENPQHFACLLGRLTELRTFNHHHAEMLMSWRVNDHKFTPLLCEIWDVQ

FXR-LBD [2] = molecular target: T1, FXR-LBD; test: FXR TR-FRET coactivator recruitment assay, antagonist mode (50 μM CDCA); assay type: biochemical; settings: Table 1; in the presence of 50 μM CDCA
human FXR [3] = molecular target: T2, human FXR (Homo sapiens, UniProt Q96RI1); test: FXR-bla reporter gene assay, agonist mode (qHTS)
T2 sequence (Q96RI1 with tags, fused parts or gaps limits assumed): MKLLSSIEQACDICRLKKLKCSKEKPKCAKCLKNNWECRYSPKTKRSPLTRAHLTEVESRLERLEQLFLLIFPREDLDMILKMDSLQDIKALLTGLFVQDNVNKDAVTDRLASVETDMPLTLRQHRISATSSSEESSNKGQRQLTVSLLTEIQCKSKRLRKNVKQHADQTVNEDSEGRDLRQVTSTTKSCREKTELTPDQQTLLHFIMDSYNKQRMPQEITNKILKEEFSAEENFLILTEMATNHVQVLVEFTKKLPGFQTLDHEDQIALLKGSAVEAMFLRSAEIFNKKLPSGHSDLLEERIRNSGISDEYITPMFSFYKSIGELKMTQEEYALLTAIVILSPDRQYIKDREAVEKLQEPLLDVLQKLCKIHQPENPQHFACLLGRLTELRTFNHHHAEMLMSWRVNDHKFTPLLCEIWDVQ

androgen receptor (AR) = androgen receptor (AR) (Homo sapiens, UniProt P10275); test: AR-bla reporter gene assay (agonist and antagonist modes)
Chain of androgen receptor (AR) (P10275 with tags, fused parts or gaps limits assumed): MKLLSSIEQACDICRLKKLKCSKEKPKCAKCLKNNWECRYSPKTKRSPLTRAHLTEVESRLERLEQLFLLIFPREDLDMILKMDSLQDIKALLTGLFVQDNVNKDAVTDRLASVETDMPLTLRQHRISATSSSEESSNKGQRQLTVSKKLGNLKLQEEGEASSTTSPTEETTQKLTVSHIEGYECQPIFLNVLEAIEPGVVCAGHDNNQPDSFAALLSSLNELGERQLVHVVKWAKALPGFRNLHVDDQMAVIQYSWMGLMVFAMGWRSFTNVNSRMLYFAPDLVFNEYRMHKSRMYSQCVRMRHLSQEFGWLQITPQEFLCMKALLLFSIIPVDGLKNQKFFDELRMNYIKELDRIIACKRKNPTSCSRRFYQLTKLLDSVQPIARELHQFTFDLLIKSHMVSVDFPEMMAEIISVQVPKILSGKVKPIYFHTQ

[4] = molecular target: estrogen receptor alpha (ERα) (Homo sapiens, UniProt P03372); test: ERα-bla reporter gene assay (agonist and antagonist modes)
Chain of estrogen receptor alpha (ERα) (P03372 with tags, fused parts or gaps limits assumed): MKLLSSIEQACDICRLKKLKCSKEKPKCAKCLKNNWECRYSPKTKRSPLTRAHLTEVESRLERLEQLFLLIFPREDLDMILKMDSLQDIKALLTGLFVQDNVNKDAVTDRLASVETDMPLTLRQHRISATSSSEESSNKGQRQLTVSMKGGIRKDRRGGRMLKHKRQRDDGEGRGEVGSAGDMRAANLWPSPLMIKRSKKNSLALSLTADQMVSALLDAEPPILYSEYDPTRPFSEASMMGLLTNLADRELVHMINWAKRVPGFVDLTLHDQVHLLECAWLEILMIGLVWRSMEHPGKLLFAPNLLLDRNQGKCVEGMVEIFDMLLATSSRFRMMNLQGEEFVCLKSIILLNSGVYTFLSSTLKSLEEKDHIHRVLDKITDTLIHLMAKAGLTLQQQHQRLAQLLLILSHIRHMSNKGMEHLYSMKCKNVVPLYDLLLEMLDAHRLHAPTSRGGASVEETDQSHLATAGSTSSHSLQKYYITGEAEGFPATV

vitamin D receptor (VDR) = vitamin D receptor (VDR) (Homo sapiens, UniProt P11473); test: VDR-bla reporter gene assay (agonist and antagonist modes)
Chain of vitamin D receptor (VDR) (P11473 with tags, fused parts or gaps limits assumed): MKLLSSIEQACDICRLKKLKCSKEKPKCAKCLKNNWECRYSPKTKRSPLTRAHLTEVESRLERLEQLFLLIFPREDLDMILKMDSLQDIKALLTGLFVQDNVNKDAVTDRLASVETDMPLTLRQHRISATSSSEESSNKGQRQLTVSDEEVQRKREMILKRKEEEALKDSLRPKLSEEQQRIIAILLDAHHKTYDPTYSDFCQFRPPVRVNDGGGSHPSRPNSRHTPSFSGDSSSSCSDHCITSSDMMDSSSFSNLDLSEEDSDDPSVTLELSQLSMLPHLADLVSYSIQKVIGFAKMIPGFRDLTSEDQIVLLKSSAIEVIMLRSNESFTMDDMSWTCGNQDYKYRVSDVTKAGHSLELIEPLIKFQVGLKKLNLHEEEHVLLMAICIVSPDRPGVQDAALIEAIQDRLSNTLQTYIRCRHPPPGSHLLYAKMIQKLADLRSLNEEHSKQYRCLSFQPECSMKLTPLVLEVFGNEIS

[5] = molecular target: peroxisome proliferator-activated receptor delta (PPARδ) (Homo sapiens, UniProt Q03181); test: PPARδ-bla reporter gene assay (agonist and antagonist modes)
Chain of peroxisome proliferator-activated receptor delta (PPARδ) (Q03181 with tags, fused parts or gaps limits assumed): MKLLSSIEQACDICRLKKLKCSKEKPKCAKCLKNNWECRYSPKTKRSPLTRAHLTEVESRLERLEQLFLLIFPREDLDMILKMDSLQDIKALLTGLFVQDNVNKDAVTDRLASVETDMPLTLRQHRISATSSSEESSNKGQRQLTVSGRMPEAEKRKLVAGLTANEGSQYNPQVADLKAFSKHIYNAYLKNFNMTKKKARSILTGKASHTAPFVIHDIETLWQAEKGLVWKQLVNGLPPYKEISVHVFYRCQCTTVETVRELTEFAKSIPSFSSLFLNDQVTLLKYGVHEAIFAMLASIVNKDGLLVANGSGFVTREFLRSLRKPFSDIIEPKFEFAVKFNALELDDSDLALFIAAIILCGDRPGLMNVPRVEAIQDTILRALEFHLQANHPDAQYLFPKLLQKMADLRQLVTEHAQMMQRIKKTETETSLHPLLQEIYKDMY

[6] = molecular target: peroxisome proliferator-activated receptor gamma (PPARγ) (Homo sapiens, UniProt P37231); test: PPARγ-bla reporter gene assay (agonist and antagonist modes)
Chain of peroxisome proliferator-activated receptor gamma (PPARγ) (P37231 with tags, fused parts or gaps limits assumed): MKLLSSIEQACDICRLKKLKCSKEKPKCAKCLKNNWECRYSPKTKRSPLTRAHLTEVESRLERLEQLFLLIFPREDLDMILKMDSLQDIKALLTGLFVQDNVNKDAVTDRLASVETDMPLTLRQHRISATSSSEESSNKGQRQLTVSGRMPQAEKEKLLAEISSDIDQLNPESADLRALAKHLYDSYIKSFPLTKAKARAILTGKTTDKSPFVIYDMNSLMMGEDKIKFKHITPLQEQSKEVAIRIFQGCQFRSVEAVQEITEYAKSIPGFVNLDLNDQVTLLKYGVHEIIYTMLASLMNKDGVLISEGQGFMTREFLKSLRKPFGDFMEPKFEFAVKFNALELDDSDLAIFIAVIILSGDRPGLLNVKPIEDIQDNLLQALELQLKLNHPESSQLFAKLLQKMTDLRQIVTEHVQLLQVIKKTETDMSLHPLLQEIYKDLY

[7] = tested on: FXR-UAS-bla HEK293T cells; test: Cell viability assay (CellTiter Glo) in the same well as FXR-bla
human FXR [8] = molecular target: T2, human FXR; test: FXR-bla reporter gene assay, antagonist mode (CDCA-induced transactivation)
[9] = Cell viability assay (CellTiter Glo) in the same well as FXR-bla; settings: human, FXR-UAS-bla HEK293T cells

CC(=O)[C@]1(O)Cc2c(O)c3c(c(O)c2[C@@H](O[C@H]2C[C@H](N)[C@H](O)[C@H](C)O2)C1)C(=O)c1ccccc1C3=O [Idarubicin]
FXR TR-FRET, agonist EC50 (FXR-LBD [1]): Inactive | FXR TR-FRET, antagonist Efficacy (FXR-LBD [2]): 162 ± 41% | EC50 (human FXR [3]): 1.37 ± 0.38 µM | FXR-bla, agonist Efficacy (human FXR [3]; Table 1, activation as percent of positive control (CDCA 100%), mean ± SD of 3): 42 ± 16% | FXR agonist EC50 (human FXR [3]; Table S3, FXR-active drugs): Inactive | AR activity (androgen receptor (AR)): mixed agonist/antagonist response | ERα activity [4]: mixed agonist/antagonist response | VDR activity (vitamin D receptor (VDR)): antagonist response | PPARδ activity [5]: antagonist response | PPARγ activity [6]: antagonist response | Cell viability IC50 ([7]; Table 1, mean ± SD of 3 experiments): Inactive | FXR-bla, antagonist Efficacy (human FXR [8]; Table 1, inhibition as percent of positive control (guggulsterone), 50 μM CDCA): 107 ± 3% | FXR antagonist Efficacy (human FXR [8]; Table S3, 50 µM CDCA): 105 ± 11%

CCOC(=O)C1=C(C)NC(C)=C(C(=O)OCC)C1c1ccccc1/C=C/C(=O)OC(C)(C)C [Lacidipine]
EC50 (human FXR [3]): 23.5 ± 10.1 µM | FXR agonist activity (human FXR [3]; FXR-bla assay): activated | FXR agonist mode Efficacy (human FXR [3]; Table S1, primary screening, CDCA 100%): 70 ± 41% | AR activity (androgen receptor (AR)): activated | ERα activity [4]: activated | PPARδ activity [5]: activated | IC50 at 16 h [9]: 54.5 ± 39.5 µM | Cytotoxicity Efficacy ([7]; Table S1, primary screening): 56 ± 39% | IC50 (human FXR [8]): 32.3 ± 2.1 µM | FXR antagonist mode Efficacy (human FXR [8]; Table S1, primary screening, 50 µM CDCA): 55 ± 20%
